Results on two compounds are retold here after patent US20210283116A1, “METHODS OF TREATING ACUTE KIDNEY INJURY” (Mitobridge, Inc., priority 2016, published 2021).

Assay [1] has as its system rat model of acute kidney injury (ischemia reperfusion injury). The experiment in a line: Ischemia reperfusion injury rat model of acute kidney injury, Compound A intravenously. It is filed as in vivo, Sprague-Dawley male rats. As to the method:
Animals, surgery and dosing: Sprague-Dawley male rats approximately 280-300 g, with ad libitum access to standard feed and water were used in these experiments. Rats (n=8/group) were anesthetized with isoflurane and placed ventrally on a temperature controlled heated surgical platform. A skin incision was made on the dorsal surface, exposing both kidneys through flank incisions. Vascular clips were applied to both renal pedicles and occlusion lasted 45 minutes. After 45 min, the clips were removed, kidneys were monitored for successful reperfusion, and surgical sites were then sutured. The sham group (n=4 rats) was subjected to similar surgical procedures, except that the occluding clamps were not applied. Compound A was formulated as a fresh daily clear solution of the hydrate of the meglumine salt of Compound A (1.5 Molar equivalent of Compound A) in 5% dextrose. Compound A was dosed IV via tail vein at 3 mg/kg, 1 mg/kg or 0.3 mg/kg 4 hours after animals awoke from surgery and sham surgery and IRI control animals were similarly dosed with vehicle.
Blood collection: Twenty-four (24) hours after reperfusion, blood was collected in K2 EDTA tubes by retro-orbital bleeding from all groups under mild isoflurane anesthesia. Plasma was separated by centrifugation at 3000 rpm for 10 minutes at 4° C. Urine collection: all study animal groups were placed in metabolic cages immediately after surgery recovery and urine was collected for 24 or 48 hours. Urine volume was carefully measured and then was centrifuged at 3000 rpm for 10 min at 4° C. to remove sediments. Plasma and urine creatinine were analyzed using a fully automated clinical biochemistry analyzer (Siemens Dimension® Xpand® Plus Integrated Chemistry System). Urinary NGAL was analyzed using a BioPorto ELISA kit. Creatinine clearance was calculated as follows: […]
GraphPad Prism software, Version 6.05 was used for graphing and statistical testing. Creatinine was tested for normal distribution in all groups via a D'Agostino-Pearson omnibus normality test and a Shapiro-Wilk normality test. Statistical significance (p<0.05) is determined by an ordinary One-way ANOVA followed by Dunnett's multiple comparison using the […] as the control group. **p<0.01, ***p<0.001 and ****p<0.0001 vs. IR-Vehicle.

The test system is the same in assay [2]. In words: Ischemia reperfusion injury rat model of acute kidney injury, Compound B orally. In kind it is in vivo, Sprague-Dawley male rats. The method, then:
Animals, surgery and dosing: Sprague-Dawley male rats approximately 280-300 g, with ad libitum access to standard feed and water were used in these experiments. Rats (n=8/group) were anesthetized with isoflurane and placed ventrally on a temperature controlled heated surgical platform. A skin incision was made on the dorsal surface, exposing both kidneys through flank incisions. Vascular clips were applied to both renal pedicles and occlusion lasted 45 minutes. After 45 min, the clips were removed, kidneys were monitored for successful reperfusion, and surgical sites were sutured. The sham group (n=4 rats) was subjected to similar surgical procedures, except that the occluding clamps were not applied. Compound B was formulated as a fresh daily suspension in 0.25% sodium carboxymethyl-cellulose, 0.25% Tween-80 in purified water. Compound B was dosed orally at 30 mg/kg 4 hours after animals awoke from surgery and sham surgery and IRI control animals were similarly dosed with vehicle. Blood collection: Twenty-four (24) hours after reperfusion, blood was collected in K2 EDTA tubes by retro-orbital bleeding from all groups under mild isoflurane anesthesia. Plasma was separated by centrifugation at 3000 rpm for 10 minutes at 4° C. Urine collection: all study animal groups were placed in metabolic cages immediately after surgery recovery and urine was collected for 24 hours. Urine volume was carefully measured and then was centrifuged at 3000 rpm for 10 min at 4° C. to remove sediments. Plasma and urine creatinine were analyzed using a fully automated clinical biochemistry analyzer (Siemens Dimension® Xpand® Plus Integrated Chemistry System). Creatinine clearance was calculated as follows: […]
GraphPad Prism software, Version 6.05 was used for graphing and statistical testing. Data was tested for normal distribution in all groups via a D'Agostino-Pearson omnibus normality test and a Shapiro-Wilk normality test. […] Statistical significance is determined by p<0.05 of IRI-vehicle compared to compound treated groups. **p<0.01 and ***p<0.001 vs. IR-Vehicle. […]

As to `Cc1cnc(-c2ccc(C(F)(F)F)nc2)n1Cc1ccccc1OCCC[C@@H](C)CC(=O)O` [Compound A, (R)-3-methyl-6-(2-((5-methyl-2-(6-(trifluoromethyl)pyridin-3-yl)-1H-imidazol-1-yl)methyl)phenoxy)hexanoic acid], in assay [1] (0.3 mg/kg, 1 mg/kg or 3 mg/kg IV 4 hours after ischemia, 24 hours after kidney injury, vs. IR-Vehicle), the “kidney function (creatinine clearance)” value is reported as “improves kidney function”. Besides, the plasma creatinine result in assay [1] (0.3 mg/kg, 1 mg/kg or 3 mg/kg IV 4 hours after ischemia, 24 hours after reperfusion, vs. IR-Vehicle) is “significantly reduces plasma creatinine”. The “early kidney injury biomarker NGAL (urinary)” value in assay [1] (0.3 mg/kg, 1 mg/kg or 3 mg/kg IV 4 hours after ischemia, 48 hours after kidney injury, vs. IR-Vehicle) is listed as “reduces the early kidney injury biomarker NGAL”. For the same compound, the kidney injury entry in assay [1] (dosed IV 4 hours after ischemia, hydrate of meglumine salt in 5% dextrose) is reported as “reduces kidney injury”.
As for `Cc1cc(SCc2nn(-c3ccc(C(F)(F)F)cc3)nc2C)ccc1OCC(=O)O` [Compound B], the plasma creatinine result in assay [2] (30 mg/kg orally 4 hours after ischemia, 24 hours after reperfusion, vs. IR-Vehicle) is recorded as “reduces plasma creatinine”. Besides, the “kidney function (creatinine clearance)” value in assay [2] (30 mg/kg orally 4 hours after ischemia, 24 hours urine collection, vs. IR-Vehicle) is listed as “improves kidney function”. Also, the kidney injury result in assay [2] (30 mg/kg orally, dosed 4 hours after ischemia) is “reduces kidney injury”.
